# Results as given in US20260207572A1, “METHODS AND COMPOSITIONS FOR TREATMENT OF SUBJECTS WITH HEPATIC IMPAIRMENTS” (ELEVAR THERAPEUTICS, INC., priority 2022, published 2026).
# Like-named read-outs stand apart in the source and are kept apart here.
# Test: Phase 1 single-dose plasma pharmacokinetics in subjects with normal hepatic function, mild or moderate hepatic impairment
# Format: in vivo, human
# Conditions: for Plasma concentration, Arithmetic Mean / Plasma concentration, Median: Predose; for AUC(0-t) / AUC(0-inf) / Cmax / Vd/F / half-life / Tmax / concentration at 0.5 h / concentration at 1 h / concentration at 2 h / concentration at 3 h / concentration at 4 h / concentration at 6 h / concentration at 8 h / concentration at 12 h / concentration at 16 h / concentration at 24 h / concentration at 36 h / concentration at 48 h: human, plasma, 200 mg
# Excerpt: Patients: 27 subjects were enrolled within the following groups based on their Child-Pugh (CP) classification score: • Group 1: Matched-control healthy subjects with normal hepatic function; • Group 2: Subjects with mild hepatic impairment (CP Class A, score of 5 or 6); • Group 3: Subjects with moderate hepatic impairment (CP Class B, score of 7 to 9).
# A parallel design strategy was adopted for the hepatic impairment groups. Each matched-control healthy subject (Group 1) was enrolled following the enrollment of a mild and/or moderate hepatic impairment subject and was demographically matched by age (±10 years), BMI (±20%), and sex to the enrolled hepatic impairment subject(s). Subjects with normal hepatic function were not matched to more than 1 hepatically-impaired subject within an impairment group; however, subjects with normal hepatic function could be matched to 1 subject from more than 1 hepatic impairment group.
# Other noncompartmental parameters could be reported.
# The paired t-test was performed separately for each hepatic impairment group and the corresponding matched healthy controls. Estimates of geometric mean ratios in primary PK parameters between each level of impaired hepatic function versus the matched healthy controls were presented along with the corresponding 90% confidence intervals (CIs) for the geometric mean ratios. The p-value assessing the difference between each impairment group and the healthy control group was presented.
# The PK analysis was conducted by Covance Early Clinical Biometrics using WinNonlin Version 8.1.
# [1] = Mild Hepatic Impairment, 200 mg single oral dose
# [2] = Moderate Hepatic Impairment, 200 mg single oral dose
# [3] = Normal Hepatic Function, 200 mg single oral dose
# [4] = po, Mild Hepatic Impairment, 200 mg single oral dose, read-out: Plasma concentration, Arithmetic Mean
# [5] = po, Mild Hepatic Impairment, 200 mg single oral dose, read-out: Plasma concentration, Geometric Mean
# [6] = po, Mild Hepatic Impairment, 200 mg single oral dose, read-out: Plasma concentration, Median
structure (smiles),measurement,setting,value
"N#CC1(c2ccc(NC(=O)c3cccnc3NCc3ccncc3)cc2)CCCC1 [Rivoceranib, N-[4-(1-cyanocyclopentyl)phenyl]-2-{[(pyridin-4-yl)methyl]amino} pyridine-3-carboxamide]","AUC0-∞, Geometric Mean",[1],2308.66 ng·h/mL
same,"CL/F, Arithmetic Mean",[1],103.183 L/h
same,"CL/F, Geometric Mean",[1],86.630 L/h
same,"CL/F, Median",[1],93.423 L/h
same,"Plasma concentration, Arithmetic Mean",[1],0.00 ng/mL
same,"Plasma concentration, Median",[1],0.00 ng/mL
same,"CL/F, Arithmetic Mean",[2],89.904 L/h
same,"CL/F, Geometric Mean",[2],81.335 L/h
same,"CL/F, Median",[2],77.251 L/h
same,"Plasma concentration, Arithmetic Mean",[2],0.00 ng/mL
same,"Plasma concentration, Median",[2],0.00 ng/mL
same,"CL/F, Arithmetic Mean",[3],68.404 L/h
same,"CL/F, Geometric Mean",[3],65.546 L/h
same,"CL/F, Median",[3],69.489 L/h
same,"Plasma concentration, Arithmetic Mean",[3],0.00 ng/mL
same,"Plasma concentration, Median",[3],0.00 ng/mL
same,AUC(0-t),"oral, Mild vs Normal: Mild hepatic impairment, paired analysis, read-out: AUC0-t, Geometric Least Squares Mean, Test",2080 ng·h/mL
same,AUC(0-inf),"oral, Mild vs Normal: Mild hepatic impairment, paired analysis, read-out: AUC0-∞, Geometric Least Squares Mean, Test",2520 ng·h/mL
same,Cmax,"oral, Mild vs Normal: Mild hepatic impairment, paired analysis, read-out: Cmax, Geometric Least Squares Mean, Test",182 ng/mL
same,AUC(0-t),"oral, Mild vs Normal: matched Normal hepatic function, paired analysis, read-out: AUC0-t, Geometric Least Squares Mean, Reference",2820 ng·h/mL
same,AUC(0-inf),"oral, Mild vs Normal: matched Normal hepatic function, paired analysis, read-out: AUC0-∞, Geometric Least Squares Mean, Reference",3020 ng·h/mL
same,Cmax,"oral, Mild vs Normal: matched Normal hepatic function, paired analysis, read-out: Cmax, Geometric Least Squares Mean, Reference",303 ng/mL
same,AUC(0-t),"oral, Moderate vs Normal: Moderate hepatic impairment, paired analysis, read-out: AUC0-t, Geometric Least Squares Mean, Test",2380 ng·h/mL
same,AUC(0-inf),"oral, Moderate vs Normal: Moderate hepatic impairment, paired analysis, read-out: AUC0-∞, Geometric Least Squares Mean, Test",2430 ng·h/mL
same,Cmax,"oral, Moderate vs Normal: Moderate hepatic impairment, paired analysis, read-out: Cmax, Geometric Least Squares Mean, Test",210 ng/mL
same,AUC(0-t),"oral, Moderate vs Normal: matched Normal hepatic function, paired analysis, read-out: AUC0-t, Geometric Least Squares Mean, Reference",2550 ng·h/mL
same,AUC(0-inf),"oral, Moderate vs Normal: matched Normal hepatic function, paired analysis, read-out: AUC0-∞, Geometric Least Squares Mean, Reference",2980 ng·h/mL
same,Cmax,"oral, Moderate vs Normal: matched Normal hepatic function, paired analysis, read-out: Cmax, Geometric Least Squares Mean, Reference",247 ng/mL
same,AUC(0-t),"po, Mild Hepatic Impairment, 200 mg single oral dose, read-out: AUC0-t, Arithmetic Mean",2550 ng·h/mL
same,AUC(0-t),"po, Mild Hepatic Impairment, 200 mg single oral dose, read-out: AUC0-t, Geometric Mean",2070 ng·h/mL
same,AUC(0-t),"po, Mild Hepatic Impairment, 200 mg single oral dose, read-out: AUC0-t, Median",1940 ng·h/mL
same,AUC(0-inf),"po, Mild Hepatic Impairment, 200 mg single oral dose, read-out: AUC0-∞, Arithmetic Mean",2840 ng·h/mL
same,AUC(0-inf),"po, Mild Hepatic Impairment, 200 mg single oral dose, read-out: AUC0-∞, Geometric Mean",2310 ng·h/mL
same,AUC(0-inf),"po, Mild Hepatic Impairment, 200 mg single oral dose, read-out: AUC0-∞, Median",2140 ng·h/mL
same,Cmax,"po, Mild Hepatic Impairment, 200 mg single oral dose, read-out: Cmax, Arithmetic Mean",291 ng/mL
same,Cmax,"po, Mild Hepatic Impairment, 200 mg single oral dose, read-out: Cmax, Geometric Mean",182 ng/mL
same,Cmax,"po, Mild Hepatic Impairment, 200 mg single oral dose, read-out: Cmax, Median",202 ng/mL
same,Vd/F,"po, Mild Hepatic Impairment, 200 mg single oral dose, read-out: VZ/F, Arithmetic Mean",1830 L
same,Vd/F,"po, Mild Hepatic Impairment, 200 mg single oral dose, read-out: VZ/F, Geometric Mean",1400 L
same,Vd/F,"po, Mild Hepatic Impairment, 200 mg single oral dose, read-out: VZ/F, Median",1100 L
same,half-life,"po, Mild Hepatic Impairment, 200 mg single oral dose, read-out: t1/2, Arithmetic Mean (converted)",13.3 ± 5.58 h
same,half-life,"po, Mild Hepatic Impairment, 200 mg single oral dose, read-out: t1/2, Geometric Mean (converted)",12.4 h
same,half-life,"po, Mild Hepatic Impairment, 200 mg single oral dose, read-out: t1/2, Median (converted)",12.3 h
same,Tmax,"po, Mild Hepatic Impairment, 200 mg single oral dose, read-out: tmax, Arithmetic Mean",3.6 h
same,Tmax,"po, Mild Hepatic Impairment, 200 mg single oral dose, read-out: tmax, Geometric Mean",2.8 h
same,Tmax,"po, Mild Hepatic Impairment, 200 mg single oral dose, read-out: tmax, Median",2.5 h
same,concentration at 0.5 h,[4],41.5 ng/mL
same,concentration at 0.5 h,[5],29.4 ng/mL
same,concentration at 0.5 h,[6],30.2 ng/mL
same,concentration at 1 h,[4],178 ng/mL
same,concentration at 1 h,[5],112 ng/mL
same,concentration at 1 h,[6],149 ng/mL
same,concentration at 2 h,[4],279 ng/mL
same,concentration at 2 h,[5],165 ng/mL
same,concentration at 2 h,[6],194 ng/mL
same,concentration at 3 h,[4],220 ng/mL
same,concentration at 3 h,[5],138 ng/mL
same,concentration at 3 h,[6],155 ng/mL
same,concentration at 4 h,[4],164 ng/mL
same,concentration at 4 h,[5],112 ng/mL
same,concentration at 4 h,[6],95.8 ng/mL
same,concentration at 6 h,[4],122 ng/mL
same,concentration at 6 h,[5],95.4 ng/mL
same,concentration at 6 h,[6],91.3 ng/mL
same,concentration at 8 h,[4],96 ng/mL
same,concentration at 8 h,[5],77.8 ng/mL
same,concentration at 8 h,[6],68.5 ng/mL
same,concentration at 12 h,[4],66.6 ng/mL
same,concentration at 12 h,[5],54.9 ng/mL
same,concentration at 12 h,[6],43.9 ng/mL
same,concentration at 16 h,[4],54.3 ng/mL
same,concentration at 16 h,[5],45.3 ng/mL
same,concentration at 16 h,[6],39.6 ng/mL
same,concentration at 24 h,[4],34.5 ng/mL
same,concentration at 24 h,[5],29 ng/mL
same,concentration at 24 h,[6],26 ng/mL
same,concentration at 36 h,[4],16.1 ng/mL
same,concentration at 36 h,[5],15.2 ng/mL
same,concentration at 36 h,[6],13.8 ng/mL
same,concentration at 48 h,[4],8.5 ng/mL
same,concentration at 48 h,[5],9.97 ng/mL
same,concentration at 48 h,[6],7.26 ng/mL
same,AUC(0-t),"po, Moderate Hepatic Impairment, 200 mg single oral dose, read-out: AUC0-t, Arithmetic Mean",2590 ng·h/mL
same,AUC(0-t),"po, Moderate Hepatic Impairment, 200 mg single oral dose, read-out: AUC0-t, Geometric Mean",2380 ng·h/mL
same,AUC(0-t),"po, Moderate Hepatic Impairment, 200 mg single oral dose, read-out: AUC0-t, Median",2450 ng·h/mL
same,AUC(0-inf),"po, Moderate Hepatic Impairment, 200 mg single oral dose, read-out: AUC0-∞, Arithmetic Mean",2660 ng·h/mL
same,AUC(0-inf),"po, Moderate Hepatic Impairment, 200 mg single oral dose, read-out: AUC0-∞, Geometric Mean",2460 ng·h/mL
same,AUC(0-inf),"po, Moderate Hepatic Impairment, 200 mg single oral dose, read-out: AUC0-∞, Median",2590 ng·h/mL
same,Cmax,"po, Moderate Hepatic Impairment, 200 mg single oral dose, read-out: Cmax, Arithmetic Mean",239 ng/mL
same,Cmax,"po, Moderate Hepatic Impairment, 200 mg single oral dose, read-out: Cmax, Geometric Mean",210 ng/mL
same,Cmax,"po, Moderate Hepatic Impairment, 200 mg single oral dose, read-out: Cmax, Median",180 ng/mL
same,Vd/F,"po, Moderate Hepatic Impairment, 200 mg single oral dose, read-out: VZ/F, Arithmetic Mean",2250 L
same,Vd/F,"po, Moderate Hepatic Impairment, 200 mg single oral dose, read-out: VZ/F, Geometric Mean",2020 L
same,Vd/F,"po, Moderate Hepatic Impairment, 200 mg single oral dose, read-out: VZ/F, Median",2090 L
same,half-life,"po, Moderate Hepatic Impairment, 200 mg single oral dose, read-out: t1/2, Arithmetic Mean (converted)",18.7 ± 3.97 h
